Values quoted from earlier work as cited in US20190008784A1, “NOVEL SECNIDAZOLE SOFT GELATIN CAPSULE FORMULATIONS AND USES THEREOF” (SYMBIOMIX THERAPEUTICS, LLC, priority 2017, published 2019).

Experiments:
bacterial vaginosis [1] = conditions: 500 mg ovule formulation compared with 37.5 mg gel
bacterial vaginosis [2] = conditions: intravaginal 750 mg ovule compared with 500 mg ovule

Cc1ncc([N+](=O)[O-])n1CCO [metronidazole]
Effectiveness in the treatment of bacterial vaginosis (bacterial vaginosis [1]): significantly more effective
Cure rates (bacterial vaginosis [2]): higher cure rates
